Reference: publication PMC9688344, “[^225Ac]Ac-SibuDAB for Targeted Alpha Therapy of Prostate Cancer: Preclinical Evaluation and Comparison with [^225Ac]Ac-PSMA-617” (Cancers, 2022)

System: immunocompetent FVB mice
Assay: Tolerability study in immunocompetent mice
Assay type: in vivo
Text: Five- to six-week-old immunocompetent, female FVB mice were purchased from Charles River Laboratories (Sulzfeld, Germany). After an acclimatization period of at least 7 days, the mice (n = 5 per group) were intravenously injected with 30 kBq [^225Ac]Ac-SibuDAB or 30 kBq [^225Ac]Ac-PSMA-617 and additional mice (n = 7 per group) remained untreated as controls. Mice were monitored by measuring their body mass and potential signs of pain or unease three times a week (Supplementary Material: Section S7). The mice were euthanized on Day 10, Day 28 or on Day 56, respectively, and variable parameters were assessed from blood and tissue samples.
Hematological analysis was performed using blood samples taken by cardiac puncture immediately after euthanasia. Blood and bone marrow smears were prepared and stained using the Pappenheim protocol. The assessment was carried out by a board-certified veterinary anatomic pathologist (AnaPath Services GmbH, Liestal, Switzerland). Blood plasma parameters were determined in plasma after centrifugation of blood samples obtained shortly before euthanasia (Supplementary Material: Section S7).
Tissue sections of formalin-fixed paraffin-embedded (FFPE) spleen, salivary glands and kidneys were prepared and stained with hematoxylin and eosin (H&E) by AnaPath Services GmbH (Liestal, Switzerland). The tissues were analyzed by a board certified veterinary pathologist using a pre-defined scoring system (Supplementary Material: Section S7). […]
The percentage of radioligand bound to mouse or human plasma (A bound) was plotted against the molar ratios of MSA/HSA to radioligand and fitted with a nonlinear regression curve (specific binding with Hill slope, Bmax set to 100%) using GraphPad Prism software (version 8) to obtain the half maximum binding (B 50).
Results: The results are reported in the main article.
Purpose: A tolerability study with normal, immunocompetent FVB mice was con-ducted in order to assess potential side effects to the bone marrow, spleen, salivary glands and kidneys after the application of high activities of the 225Ac-labeled PSMA radioligands.
Methods: Monitoring Body Mass and Signs of Unease: Mice were monitored by meas-uring their body mass (BM) three times a week. The body masses were expressed as the relative body mass, defined as [BMx/BM0], where BMx is the body mass in grams on a given Day x and BM0 is the body mass in grams on Day 0. Endpoint criteria, defined as (i) >15% loss in body mass, (ii) signs of unease and pain or a combination thereof based on a scoring system, were not reached in this stu dy.
Hematology: Blood cell counts were determined in blood samples taken by cardiac puncture immediately after euthanasia and collected in EDTA tubes (Microvette® 100 K3 EDTA, Sarstedt, Germany). Leukocyte, lymphocyte, erythrocyte and thrombocyte counts as well as hemoglobin and hematocrit values were determined using a hematology ana-lyzer (VetScan HM5, Abaxis, United States). Blood smears were prepared on glass slides with cardiac blood. The bone marrow was collected from the femur, diluted in FCS/H2O (2:1 v/v) and smeared onto microscopy slides using a paintbrush. The slides were stained with a May Grünwald solution and subsequently with diluted Giemsa solution using the Pappenheim method and covered with coverslips using mounting medium (Pertex).
The assessment of potential morphological ch anges of the blood cells and counting of the subgroups of leukocytes was performed by a board-certified veterinary pathologist (Ana-Path Services GmbH, Liestal, Switzerland).
Histopathological Analysis: Spleen, salivary glands and kidneys were formalin-fixed and paraffin-embedded. Tissue sections were stained with hematoxylin & eosin (H&E) […]
Blood Plasma Parameters: Blood plasma parameters were determined in plasma ob-tained from centrifuged retrobulbar blood samples collected in lithium-heparin tubes (Mi-crovette® 200 LH, SARSTEDT). The concentrations of blood urea nitrogen (BUN), alkaline […]

Compound: CC(C)Cc1ccc(C(C)C(=O)NC(CCN)C(=O)NCCCCC(NC(=O)CN2CCN(CC(=O)[O-])CCN(CC(=O)[O-])CCN(CC(=O)[O-])CC2)C(=O)NCC2CCC(C(=O)NC(Cc3ccc4ccccc4c3)C(=O)NCCCCC(NC(=O)NC(CCC(=O)O)C(=O)O)C(=O)O)CC2)cc1.[225Ac+3] (stereo not shown) [[^225Ac]Ac-SibuDAB]
- Salivary glands: Ductal hyperplasia with inflammatory cells, score average (Day 28, 30 kBq): 0.0
- Salivary glands: Hypertrophy acinar, sublingual, incidence (Day 28, 30 kBq): 1
- Salivary glands: Hypertrophy acinar, sublingual, score average (Day 28, 30 kBq): 1.0
- Salivary glands: Mononuclear cell foci, incidence (Day 28, 30 kBq): 3
- Salivary glands: Mononuclear cell foci, score average (Day 28, 30 kBq): 1.0
- Salivary glands: Necrosis, multifocal, serous acinar cells, incidence (Day 28, 30 kBq): completely absent
- Salivary glands: Necrosis, multifocal, serous acinar cells, score average (Day 28, 30 kBq): 0.0
- Salivary glands: Vacuolation, incidence (Day 28, 30 kBq): 0
- Salivary glands: Vacuolation, score average (Day 28, 30 kBq): 0.0
- Spleen: Extramedullary hematopoiesis, incidence (Day 28, 30 kBq): 5
- Spleen: Extramedullary hematopoiesis, score average (Day 28, 30 kBq): 1.8
- Spleen: Hyperplasia, lymphoid, incidence (Day 28, 30 kBq): 5
- Spleen: Hyperplasia, lymphoid, score average (Day 28, 30 kBq): 1.2
- Spleen: Pigment, incidence (Day 28, 30 kBq): 5
- Spleen: Pigment, score average (Day 28, 30 kBq): 2.0
- Salivary glands: Necrosis, multifocal, serous acinar cells, incidence (Day 28, 30 kBq, listed as [225Ac]Ac-SibuDAB): 0
- Bone marrow % E (Day 28, mouse M1): 40%
- Bone marrow % M (Day 28, mouse M1): 60%
- Bone marrow % E (Day 28, mouse M2): 50%
- Bone marrow % M (Day 28, mouse M2): 50%
- Bone marrow % E (Day 28, mouse M3): 40%
- Bone marrow % M (Day 28, mouse M3): 60%
- Bone marrow % E (Day 28, mouse M4): 50%
- Bone marrow % M (Day 28, mouse M4): 50%
- Bone marrow % E (Day 28, mouse M5): 50%
- Bone marrow % M (Day 28, mouse M5): 50%
- Kidneys: Hyperplasia/hypertrophy, tubular, incidence (Day 56, 30 kBq): 1
- Kidneys: Hyperplasia/hypertrophy, tubular, score average (Day 56, 30 kBq): 1.0
- Kidneys: Hypertrophy/hyperplasia, tubular with ectasia, incidence (Day 56, 30 kBq): 0
- Kidneys: Hypertrophy/hyperplasia, tubular with ectasia, score average (Day 56, 30 kBq): 0.0
- Kidneys: Inflammatory cells, interstitium, incidence (Day 56, 30 kBq): 1
- Kidneys: Inflammatory cells, interstitium, score average (Day 56, 30 kBq): 1.0
- Kidneys: Inflammatory cells, pelvis, incidence (Day 56, 30 kBq): 1
- Kidneys: Inflammatory cells, pelvis, score average (Day 56, 30 kBq): 1.0
- Kidneys: Mineralization, papilla, incidence (Day 56, 30 kBq): 0
- Kidneys: Mineralization, papilla, score average (Day 56, 30 kBq): 0.0
- Kidneys: Tubular basophilia, incidence (Day 56, 30 kBq): 2
- Kidneys: Tubular basophilia, score average (Day 56, 30 kBq): 1.0
- Salivary glands: Ductal hyperplasia with inflammatory cells, incidence (Day 56, 30 kBq): 0
- Salivary glands: Ductal hyperplasia with inflammatory cells, score average (Day 56, 30 kBq): 0.0
- Salivary glands: Hypertrophy acinar, sublingual, incidence (Day 56, 30 kBq): 0
- Salivary glands: Hypertrophy acinar, sublingual, score average (Day 56, 30 kBq): 0.0
- Salivary glands: Mononuclear cell foci, incidence (Day 56, 30 kBq): 2
- Salivary glands: Mononuclear cell foci, score average (Day 56, 30 kBq): 1.0
- Salivary glands: Necrosis, multifocal, serous acinar cells, incidence (Day 56, 30 kBq): 0
- Salivary glands: Necrosis, multifocal, serous acinar cells, score average (Day 56, 30 kBq): 0.0
- Salivary glands: Vacuolation, incidence (Day 56, 30 kBq): 0
- Salivary glands: Vacuolation, score average (Day 56, 30 kBq): 0.0
- Spleen: Extramedullary hematopoiesis, incidence (Day 56, 30 kBq): 5
- Spleen: Extramedullary hematopoiesis, score average (Day 56, 30 kBq): 1.8
- Spleen: Hyperplasia, lymphoid, incidence (Day 56, 30 kBq): 0
- Spleen: Hyperplasia, lymphoid, score average (Day 56, 30 kBq): 0.0
- Spleen: Pigment, incidence (Day 56, 30 kBq): 5
- Spleen: Pigment, score average (Day 56, 30 kBq): 2.0
- Bone marrow % E (Day 56, mouse M1): 40%
- Bone marrow % M (Day 56, mouse M1): 60%
- Bone marrow % E (Day 56, mouse M2): 30%
- Bone marrow % M (Day 56, mouse M2): 70%
- Bone marrow % E (Day 56, mouse M3): 40%
- Bone marrow % M (Day 56, mouse M3): 60%
- Bone marrow % E (Day 56, mouse M4): 40%
- Bone marrow % M (Day 56, mouse M4): 60%
- Bone marrow % E (Day 56, mouse M5): 40%
- Bone marrow % M (Day 56, mouse M5): 60%
